Some test systems named below: A549 NSCLC; HOP-92 NSCLC; NCI-H23 lung; OVCAR-8 ovarian; RPMI-8226 leukemia; SNB-75 CNS; TK-10 renal; UACC-62 melanoma; SF-268 CNS; BT-549 breast.
Holding throughout (experiment): NCI-60 cell line screen, 48 h

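Each compound was tested at five concentrations against cells in 96-well plates for 48 hours. The concentration for 50% growth inhibition is given as GI50. Definition used: TGI = concentration required for complete inhibition of growth.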

For `O=c1c2cc3c(cc2c2cccc4c2n1CCC4)OCO3`, the TGI in the assay on A549 NSCLC, with HOP-92 NSCLC, in the assay with NCI-H23 lung, with OVCAR-8 ovarian, with RPMI-8226 leukemia and in the assay on SNB-75 CNS was over 100 µM each time. Also, the TGI with TK-10 renal and in the assay with UACC-62 melanoma was over 100 µM each time.
Regarding `Cc1c2c(c(C)c3c1[nH]c1ccccc13)CN(C)CC2`, the TGI with A549 NSCLC was over 100 µM; in the assay with HOP-92 NSCLC it was 57.5 µM; in the assay with NCI-H23 lung, 56.3 µM; with OVCAR-8 ovarian, 37.7 µM; in the assay on RPMI-8226 leukemia, 67 µM; with SF-268 CNS it was 47.6 µM. In addition, the figures for the TGI in the assay with SNB-75 CNS, in the assay on TK-10 renal and with UACC-62 melanoma were 28.8 µM, 51.1 µM and 31.9 µM, respectively.
Consider `COC(=O)Cc1cc(=O)[nH]c2c1C(=O)CCC2`, for which the TGI in the assay with A549 NSCLC, with HOP-92 NSCLC, in the assay on NCI-H23 lung, with OVCAR-8 ovarian, in the assay with RPMI-8226 leukemia and in the assay with SF-268 CNS was over 100 µM throughout. The TGI in the assay with TK-10 renal is over 100 µM.
Take `NC(=O)NC1C(C(=O)O)N(Cc2ccccc2)C(=O)N1Cc1ccccc1` (centres undefined): the TGI in the assay on A549 NSCLC, in the assay on HOP-92 NSCLC, in the assay on NCI-H23 lung, in the assay on OVCAR-8 ovarian, with RPMI-8226 leukemia and in the assay on SF-268 CNS was over 100 µM each time. Also, the TGI in the assay with SNB-75 CNS, with TK-10 renal and in the assay with UACC-62 melanoma was over 100 µM each time.
As for `O=Cc1ccc(-c2ccc(-c3nc4ccccc4s3)cc2)s1`, the GI50 with A549 NSCLC was over 100 µM; with BT-549 breast it was 63.8 µM; in the assay on NCI-H23 lung, 84.2 µM; in the assay on OVCAR-8 ovarian, 80.9 µM; in the assay on SF-268 CNS it was 71.7 µM; in the assay on SNB-75 CNS it was over 100 µM. Moreover, the GI50 is 70.2 µM in the assay on TK-10 renal and 22.2 µM with UACC-62 melanoma. In addition, the TGI in the assay on A549 NSCLC, in the assay with BT-549 breast, in the assay with NCI-H23 lung, in the assay with OVCAR-8 ovarian, in the assay with SF-268 CNS and in the assay on SNB-75 CNS was over 100 µM throughout. Besides, the TGI with TK-10 renal and in the assay on UACC-62 melanoma was over 100 µM each time.
As to `OCCN(CCO)c1cccc(N(CCO)CCO)n1`, the TGI with A549 NSCLC, with HOP-92 NSCLC, with OVCAR-8 ovarian, with RPMI-8226 leukemia, in the assay on SF-268 CNS and in the assay on SNB-75 CNS was over 100 µM throughout. Moreover, the TGI in the assay on TK-10 renal and in the assay with UACC-62 melanoma was over 100 µM throughout.
Consider `COc1ccc(C(=O)C#Cc2c[nH]c(=O)[nH]c2=O)cc1`, for which the TGI is over 59.6 µM with A549 NSCLC; 41.8 µM in the assay on HOP-92 NSCLC; 32.8 µM in the assay with NCI-H23 lung; 32.5 µM in the assay with OVCAR-8 ovarian; 41.6 µM in the assay on RPMI-8226 leukemia; 55.3 µM with SF-268 CNS. Further, the TGI with SNB-75 CNS was determined as 45.5 µM; with TK-10 renal, 23.3 µM; in the assay on UACC-62 melanoma, 32.8 µM.
In the case of `CCC1(CN(C)C)CC/C(=C\c2ccc(OC)c(OC)c2)C1=O` (centres undefined), the TGI with A549 NSCLC was over 100 µM; in the assay with HOP-92 NSCLC, over 100 µM; with NCI-H23 lung, over 100 µM; with OVCAR-8 ovarian, over 100 µM; in the assay with RPMI-8226 leukemia it was over 69.1 µM; in the assay on SF-268 CNS it was over 100 µM. For the same compound, the TGI with SNB-75 CNS, with TK-10 renal and in the assay on UACC-62 melanoma was over 100 µM each time.
As to `Cl.Fc1c[c-]c(-c2ccccn2)c(F)c1.[Pt].c1ccc([PH+](C[PH+](c2ccccc2)c2ccccc2)c2ccccc2)cc1`, the GI50 is 0.206 µM with A549 NSCLC; 0.155 µM in the assay on HOP-92 NSCLC; 0.303 µM with OVCAR-8 ovarian; 0.161 µM in the assay with RPMI-8226 leukemia; 0.183 µM in the assay on SNB-75 CNS; 0.274 µM in the assay with TK-10 renal. The GI50 with UACC-62 melanoma was 0.199 µM. The TGI with A549 NSCLC was 1.34 µM; in the assay with HOP-92 NSCLC it was 0.48 µM; with OVCAR-8 ovarian, 1.73 µM; in the assay with RPMI-8226 leukemia it was 0.544 µM; with SNB-75 CNS, 0.781 µM; in the assay on TK-10 renal it was 1.43 µM. The TGI in the assay with UACC-62 melanoma was 0.511 µM.
Turning to `O=C1CCCCC12CCC/C2=N\O` (centres undefined), the TGI in the assay on A549 NSCLC, in the assay with OVCAR-8 ovarian, in the assay on RPMI-8226 leukemia, with SF-268 CNS, in the assay on SNB-75 CNS and with TK-10 renal was over 100 µM throughout. Besides, the TGI in the assay on UACC-62 melanoma was over 100 µM.
In the case of `O=C(NCCCl)SCCO`, the TGI in the assay with A549 NSCLC, in the assay on NCI-H23 lung, in the assay with OVCAR-8 ovarian, with RPMI-8226 leukemia, in the assay on SF-268 CNS and in the assay on SNB-75 CNS was over 100 µM in each case. The TGI with TK-10 renal and with UACC-62 melanoma was over 100 µM each time.
In the case of `Cc1ccc(NC(=O)CCc2n[nH]c(=S)o2)cc1`, the TGI in the assay on A549 NSCLC, in the assay on HOP-92 NSCLC, in the assay on NCI-H23 lung, in the assay on OVCAR-8 ovarian, in the assay with SF-268 CNS and in the assay on SNB-75 CNS was over 100 µM in each case. In addition, the TGI with TK-10 renal and in the assay with UACC-62 melanoma was over 100 µM in each case.
In the case of `Cc1ccc(S(=O)(=O)N/N=C/C(C)C)cc1`, the TGI in the assay with A549 NSCLC, with HOP-92 NSCLC, in the assay with NCI-H23 lung, in the assay on OVCAR-8 ovarian, in the assay with RPMI-8226 leukemia and in the assay on SF-268 CNS was over 100 µM in each case. Moreover, the TGI in the assay with SNB-75 CNS, in the assay on TK-10 renal and in the assay on UACC-62 melanoma was over 100 µM in each case.
As for `Cc1nc2ccccc2nc1N=Nc1ccccc1`, the GI50 is 37.3 µM in the assay on A549 NSCLC; 3.03 µM with HOP-92 NSCLC; 14.4 µM in the assay with NCI-H23 lung; 22.4 µM in the assay with OVCAR-8 ovarian; 12.2 µM in the assay with RPMI-8226 leukemia; 22.7 µM in the assay on SF-268 CNS. For the same compound, the figures for the GI50 in the assay with SNB-75 CNS, in the assay on TK-10 renal and in the assay with UACC-62 melanoma were 18.3 µM, 48.8 µM and 14.2 µM, respectively. The TGI with A549 NSCLC was over 100 µM; with HOP-92 NSCLC, 43.9 µM; with NCI-H23 lung, 51.1 µM; in the assay on OVCAR-8 ovarian, over 100 µM; in the assay with RPMI-8226 leukemia it was 42.8 µM; with SF-268 CNS, over 100 µM. The TGI in the assay with SNB-75 CNS is over 100 µM; in the assay on TK-10 renal, over 100 µM; in the assay with UACC-62 melanoma, 35.2 µM.

Values taken from PubChem BioAssay (NCI).
